Test results from patent US6562837B1, “Use of tetrahydroisoquinoline compounds for the treatment of septicemia” (Korea Institute of Science & Technology, priority 1998, dated 2003).

How the values were obtained:
[1] = tested on: iNOS mRNA in macrophages (RAW 264.7 cells); test: Suppression of LPS- and IFN-γ-induced iNOS mRNA expression in macrophage (Northern blot); format: cell-based; details: LPS 100 ng/ml + IFN-γ 10 U/ml, 18 hours, compound 1, 10 and 100 μM, FIG. 2
Procedure: In a DMEM medium supplemented with thermally treated 10% fetal calf serum, penicillin (100 U/ml) and streptomycin ([…]), macrophages (RAW 264.7 cells) were cultured to be confluent in a CO2 incubator. After being transferred to a serum-free DMEM medium, the cells were cultured for additional 24 hours and then, further for 18 hours in the presence of LPS (100 ng/ml) and interferon-γ (hereinafter referred to as “IFN-γ”; 10 U/ml), and/or the compound of Chemical Formula 2 (0, 1, 10, and 100:μM). Using a trizol solution, the total RNA was extracted from the cultured macrophages. After quantification in a spectrophotometer, the total RNA obtained was electrophoresed on a formamide-formaldehyde agarose gel and transferred to a nylon membrane. Thereafter, the total RNA on the nylon membrane was hybridized with cDNA probes for iNOS to determine the expression level of iNOS mRNA, in which the cDNA of iNOS was labeled with ^32P-dCTP by a random-primer method. For quantification, an x-ray film was exposed to the radioactive irradiation from the nylon membrane and developed to compare the radioactivity level of desired objects with those of GAPDH. […]

iNOS mRNA = test: Suppression of LPS-induced iNOS mRNA expression in rat isolated aorta (Northern blot); format: cell-based; details: LPS 300 ng/ml, 8 hours; compound 10, 30 and 100 μM; FIG. 1
Procedure: Rats were anesthetized with pentobarbital sodium (50 mg/kg) and the aorta was isolated, followed by removing endothelium from the aorta. After being incubated at 37° C. for 8 hours in a Krebs solution containing 300 ng/ml of LPS, the aorta was subjected to total RNA extraction with the aid of a trizol solution (GibcoBRL). After quantification by use of a UV spectrophotometer (Shimadzu, UV-1201), the total RNA obtained was electrophoresed on a formamide-formaldehyde agarose gel and transferred to a nylon membrane. Thereafter, the total RNA on the nylon membrane was hybridized with cDNA probes for iNOS to determine the expression level of iNOS mRNA, in which the cDNA of iNOS was labeled with ^32P-dCTP by a random-primer method. For quantification, an x-ray film was exposed to the radioactive irradiation from the nylon membrane and developed to compare the dot sizes of desired objects with those of GAPDH (glyceraldehyde-3-phosphate dehydrogenase).
When aortic preparations were incubated, in vitro, the blood vessel was cultured, in vitro, in the presence of LPS, iNOS mRNA was transcribed in a large amount. […]

Structure (SMILES) | LPS/IFN-γ-induced iNOS mRNA expression in macrophages [1] | LPS-induced iNOS mRNA expression in isolated rat aorta (iNOS mRNA)
Oc1cc2c(cc1O)C(Cc1ccc3ccccc3c1)NCC2 (stereo not drawn) [Compound 2, 1-β-naphthylmethyl-6,7-dihydroxy-1,2,3,4-tetrahydroisoquinoline] | inhibits the LPS/IFN-γ-induced iNOS mRNA expression in a concentration-dependent manner | 
Oc1cc2c(cc1O)C(Cc1cccc3ccccc13)NCC2 (stereo not drawn) [Compound 1, 1-α-naphthylmethyl-6,7-dihydroxy-1,2,3,4-tetrahydroisoquinoline] |  | inhibits the LPS-induced iNOS mRNA expression in a concentration-dependent manner
